In patent US20210290597A1, “METHOD OF TREATING A CONDITION ASSOCIATED WITH NEURODEGENERATION USING INHIBITORS OF OAT3” (Neuropore Therapies, Inc., priority 2018, published 2021):
Values joined by “and” are separate entries in the source; they are usually repeats but may differ in a detail not shown here. Equal values may be shown once.

Columns and labels:
L61 ASYN transgenic mice = experiment: Grip strength, L61 ASYN transgenic mice, 3 month study; assay type: in vivo; conditions: 5 mg/kg and 10 mg/kg i.p. daily, after 70 days of treatment
Description: The effects of Compound 1 on the motor performance deficits (grip strength) and a marker of neuroinflammation (Translocator Protein (18 kDa)) were assessed in both L61 ASYN transgenic and non-transgenic mice in a 3 month administration study.
Briefly, Compound 1 was injected into L61 ASYN transgenic mice and non-transgenic control mice (i.p., once daily) at doses of 5 and 10 mg/kg for 3 months (79 total mice, n=14-17 mice per treatment group). The vehicle control consisted of a solution containing 5% DMSO+20% Cremphor EL+0.9% normal saline. The baseline grip strength of mice was evaluated prior to starting treatments for the 3 month study, and then re-evaluated following 70 days of treatment with vehicle or Compound 1 (5 or 10 mg/kg, i.p. injection daily).

[1] = target: T1, human transporter MATE2-K (Homo sapiens, UniProt Q86VL8); experiment: In vitro ion transport assay 1, MATE2-K; assay type: cell-based; conditions: probe substrate 10 μM [14C]-metformin
T1 construct: expressed in transfected cells; host or cells: MDCK-II
Description: (§1) Compound 1 was studied in the concentration range of 0.1-100 μM for its potency against transport mediated by various transporter proteins. [table]

human transporter OAT3 = target: T2, human transporter OAT3 (Homo sapiens, UniProt Q8TCC7); experiment: In vitro ion transport assay 1, OAT3-mediated uptake in MDCK-II cells; assay type: cell-based
T2 construct: expressed in transfected cells; host or cells: MDCK-II
T2 sequence (Q8TCC7 1-542): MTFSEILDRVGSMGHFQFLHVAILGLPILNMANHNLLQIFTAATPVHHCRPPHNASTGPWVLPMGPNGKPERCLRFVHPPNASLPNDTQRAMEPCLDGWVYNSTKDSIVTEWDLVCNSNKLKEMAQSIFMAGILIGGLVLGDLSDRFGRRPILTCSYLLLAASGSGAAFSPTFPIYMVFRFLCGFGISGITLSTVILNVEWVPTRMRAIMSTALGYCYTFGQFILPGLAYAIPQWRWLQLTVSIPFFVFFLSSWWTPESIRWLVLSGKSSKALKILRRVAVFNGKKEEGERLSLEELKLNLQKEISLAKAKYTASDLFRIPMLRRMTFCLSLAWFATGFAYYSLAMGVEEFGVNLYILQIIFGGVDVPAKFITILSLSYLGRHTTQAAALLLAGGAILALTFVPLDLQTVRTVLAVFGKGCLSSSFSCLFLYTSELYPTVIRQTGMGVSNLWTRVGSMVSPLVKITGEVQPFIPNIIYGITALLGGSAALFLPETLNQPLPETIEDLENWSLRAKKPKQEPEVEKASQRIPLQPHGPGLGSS
Description: To determine the effect of the ion transporter inhibitors on the uptake activity of solute carrier (SLC) ion transporter proteins such as OAT1 and OAT3, an ion transport assay utilizing a polarized monolayer of MDCK-II cells grown on permeable supports was used. The MDCK-II cells were treated to express the transporter of interest (e.g., OAT3 or OAT 1) or were treated with a control vector. 96-well culture plates with both donor and receiver cells containing a monolayer of MDCK-II cells were maintained at 37° C. in 5% CO2 atmosphere. Radio-labeled para-aminohippurate ([3H]-PAH) was used as a substrate for measuring OAT1 and OAT3 mediated transport, where the transport of the substrate was determined by radiometric detection. OAT1-mediated transport was assayed using 2 μM of [3H]-PAH; OAT3-mediated transport was assayed using 10 μM of [3H]-PAH. The probe substrate for OAT1 was 2 μM [3H]-p-aminohippurate. The probe substrate for OAT3 was 10 μM [3H]p-aminohippurate. The reference inhibitor for both assays was 100 μM probenecid. Following pre incubation of the transfected MDCK-II cells in HBSS, [3H]-PAH was added at the concentrations described above. Wells were then treated with either reference inhibitor probeneic acid or with the test compound. Cells transfected with empty vector served as an additional control. […]

P-gp (MDR1) = target: T3, P-gp (MDR1) (Homo sapiens, UniProt P08183); experiment: In vitro ion transport assay 1, P-gp; assay type: cell-based; conditions: probe substrate 100 nM [3H]-quinidine
T3 construct: expressed in transfected cells
Description: as §1

[2] = system: glial fibrillary acidic protein (GFAP); experiment: GFAP IHC, L61 ASYN transgenic mice; assay type: in vivo
Description: Neuroinflammation is also associated with increased expression of glial fibrillary acidic protein (GFAP) in activated astrocytes, which is induced by a variety of molecules including pro-inflammatory mediators released from activated microglia (Saijo et al. 2009). Increased expression of glial fibrillary acidic protein (GFAP) represents astroglial activation and gliosis during neurodegeneration. (Brahmachari et al., 2006). The effects of Compound 1 on GFAP expression were assessed in both L61 ASYN transgenic and non-transgenic mice in a 1 month administration study. After 30 days, the mice were sacrificed, and IHC detection of GFAP was assessed in the harvested brain tissues.
The harvested brain tissues from treated mice were fixed (drop fixed in 4% PFA) and then sectioned into 40 micro thick sections using a vibratome. The representative sections containing the hippocampus were assessed for GFAP with standard immunohistochemistry staining. The general methods used for GFAP immunostaining follow those described in Rockenstein et al., J Neurosci Res. 2002, 68(5):568-78.

[3] = system: dopaminergic (DAT) transporter; experiment: DAT immunolabeling in striatum, L61 ASYN transgenic mice; assay type: in vivo; conditions: 3 months
Description: The harvested brain tissues were drop fixed using 4% PFA and sectioned on a vibratome, and representative sections corresponding to the striatum and cerebellum were assessed for DAT with IHC staining.
Immunolabeling studies of DAT were conducted using a monoclonal antibody (1:500; MAB369; Millipore, Temecula, Calif.) and a biotinylated secondary antibody (1:100; BA4000, Vector Labs) and analysis was performed on blindcoded sections from Line 61 transgenic and non-transgenic mice. Slides were digitized using a high resolution automated Nanozoomer slide scanner (Hamamatsu Corp.). Digitized images were analyzed using Halo (Indica Labs) image analysis software package by placing an ROI frame within the dorsal striatum and another within a separate reference brain region (for normalization of DAT signal). A thresholding algorithm was defined and then applied equally to all images to determine the average optical density of DAT immunolabeling across each ROI The results of the analysis were then exported for graphing and statistical analysis and the striatal DAT:cortical (reference region) DAT optical densities ratio was calculated for each subject.
Quantification of DAT density was carried out by calculating the immunofluorescence in striatal sections against that in cerebellum sections to derive a striatal-to-reference ratio.

T1 sequence (Q86VL8 1-566 isoform Q86VL8-3): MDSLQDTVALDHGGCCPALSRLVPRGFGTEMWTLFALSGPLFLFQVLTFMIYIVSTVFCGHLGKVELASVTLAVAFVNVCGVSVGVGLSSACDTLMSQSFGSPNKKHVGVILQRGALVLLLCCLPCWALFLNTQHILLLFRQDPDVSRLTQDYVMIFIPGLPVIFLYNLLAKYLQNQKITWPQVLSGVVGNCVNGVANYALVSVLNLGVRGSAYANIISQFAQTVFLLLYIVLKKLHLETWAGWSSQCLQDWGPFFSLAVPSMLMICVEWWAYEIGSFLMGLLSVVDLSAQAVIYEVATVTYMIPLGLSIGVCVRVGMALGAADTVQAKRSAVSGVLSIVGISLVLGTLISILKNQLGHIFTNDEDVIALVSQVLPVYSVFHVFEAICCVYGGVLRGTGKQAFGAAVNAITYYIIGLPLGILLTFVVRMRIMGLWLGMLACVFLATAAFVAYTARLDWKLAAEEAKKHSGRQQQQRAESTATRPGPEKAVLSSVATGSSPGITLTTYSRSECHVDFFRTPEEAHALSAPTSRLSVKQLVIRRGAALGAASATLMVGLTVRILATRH
T3 sequence (P08183 whole entry, species assumed): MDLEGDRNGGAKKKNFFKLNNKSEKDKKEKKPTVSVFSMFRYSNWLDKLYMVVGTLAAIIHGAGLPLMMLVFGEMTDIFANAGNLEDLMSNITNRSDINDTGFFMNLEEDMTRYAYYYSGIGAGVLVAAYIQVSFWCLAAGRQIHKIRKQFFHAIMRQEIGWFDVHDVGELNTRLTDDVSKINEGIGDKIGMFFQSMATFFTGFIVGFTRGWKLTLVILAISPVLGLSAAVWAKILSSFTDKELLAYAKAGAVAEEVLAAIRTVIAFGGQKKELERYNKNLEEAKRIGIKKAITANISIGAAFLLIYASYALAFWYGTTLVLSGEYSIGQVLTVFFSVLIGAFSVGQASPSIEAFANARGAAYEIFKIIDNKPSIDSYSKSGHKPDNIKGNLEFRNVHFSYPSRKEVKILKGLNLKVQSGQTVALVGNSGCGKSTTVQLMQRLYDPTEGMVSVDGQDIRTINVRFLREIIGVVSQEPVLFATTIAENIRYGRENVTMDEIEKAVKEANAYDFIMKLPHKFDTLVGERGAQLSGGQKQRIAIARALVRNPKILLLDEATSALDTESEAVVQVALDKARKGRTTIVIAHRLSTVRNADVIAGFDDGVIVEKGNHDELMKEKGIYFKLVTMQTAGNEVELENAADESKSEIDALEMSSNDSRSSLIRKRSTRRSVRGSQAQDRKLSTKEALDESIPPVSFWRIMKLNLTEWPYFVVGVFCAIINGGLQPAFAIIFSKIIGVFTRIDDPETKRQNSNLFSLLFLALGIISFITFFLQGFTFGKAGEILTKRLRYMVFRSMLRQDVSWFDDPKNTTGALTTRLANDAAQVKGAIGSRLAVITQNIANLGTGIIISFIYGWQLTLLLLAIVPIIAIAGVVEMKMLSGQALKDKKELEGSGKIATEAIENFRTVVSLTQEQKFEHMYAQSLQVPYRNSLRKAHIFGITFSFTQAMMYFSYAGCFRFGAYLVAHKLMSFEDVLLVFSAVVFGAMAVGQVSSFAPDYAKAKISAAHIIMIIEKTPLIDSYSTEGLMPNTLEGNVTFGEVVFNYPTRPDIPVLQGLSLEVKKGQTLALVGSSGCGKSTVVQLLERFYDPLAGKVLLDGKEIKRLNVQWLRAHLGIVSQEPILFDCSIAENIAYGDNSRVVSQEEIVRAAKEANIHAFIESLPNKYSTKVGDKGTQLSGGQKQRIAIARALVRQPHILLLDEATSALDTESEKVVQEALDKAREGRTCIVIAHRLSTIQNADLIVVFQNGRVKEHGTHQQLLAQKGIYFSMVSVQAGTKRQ

Question: Which “grip strength vs vehicle-treated transgenic mice” value (L61 ASYN transgenic mice) does the source give for `O=S(=O)(c1ccc(-n2cn[nH]c2=S)cc1)c1ccc(Cl)c(C(F)(F)F)c1` [Compound 1, 4-(4-((4-chloro-3-(trifluoromethyl)phenyl)sulfonyl)phenyl)-2,4-dihydro-3H-1,2,4-triazole-3-thione] here?
Answer: higher grip strengths

Question: And the IC50 [1]?
Answer: 75.8 µM

Question: What about the “potency against OAT3 compared with potency against OAT1” value (human transporter OAT3; OAT3 vs OAT1, [3H]-PAH uptake) of the same compound?
Answer: about 20 fold

Question: What about the IC50 (human transporter OAT3; assay 1, probe substrate 10 μM [3H]-p-aminohippurate, MDCK-II cells) of the same compound?
Answer: 0.62 µM and 0.622 µM

Question: What about the IC50 (P-gp (MDR1)) of the same compound?
Answer: 37.1 µM

Question: And the “GFAP levels, IHC staining intensity in representative images” value ([2]; 5 mg/kg or 10 mg/kg daily i.p.)?
Answer: reducing cortical levels of GFAP

Question: What about the “GFAP levels, quantification of IHC staining” value ([2]; 10 mg/kg daily i.p.) of the same compound?
Answer: reduces the cortical GFAP levels in a statistically significant manner

Question: And the “striatal levels of DAT, staining intensity in representative images vs vehicle-treated L61 mice” value ([3]; 5 mg/kg or 10 mg/kg daily)?
Answer: restoring striatal levels of DAT

Question: And the “DAT striatal-to-reference ratio, quantification (FIG. 24)” value ([3]; 10 mg/kg daily)?
Answer: reduces the GFAP levels in a statistically significant manner
